Laboratory results: PubChem BioAssay (NCI)
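Results reflect a 48-hour exposure of cells in 96-well plates to compound at five concentrations. TGI is the concentration that stops growth completely.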

Legend:
Assay in all cases: NCI-60 cell line screen, 48 h
COLO 205 colon = test system: COLO 205 colon
NCI-H522 lung = test system: NCI-H522 lung
SK-MEL-28 melanoma = test system: SK-MEL-28 melanoma
M14 melanoma = test system: M14 melanoma
LXFL 529 NSCLC = test system: LXFL 529 NSCLC
SK-OV-3 ovarian = test system: SK-OV-3 ovarian
SNB-78 CNS = test system: SNB-78 CNS
OVCAR-5 ovarian = test system: OVCAR-5 ovarian

Row | Structure (SMILES) | TGI (COLO 205 colon) | TGI (NCI-H522 lung) | TGI (SK-MEL-28 melanoma) | TGI (M14 melanoma) | TGI (LXFL 529 NSCLC) | TGI (SK-OV-3 ovarian) | TGI (SNB-78 CNS) | TGI (OVCAR-5 ovarian)
1 | CC1(C)C(=O)C(C)(C)C1=NNC(N)=S | > 100 µM | > 100 µM | > 100 µM | > 100 µM | > 100 µM | > 100 µM | > 100 µM | > 100 µM
2 | N#C/C(=C1\OC(=N)C(c2ccccc2)C1=O)c1ccccc1 (stereo not drawn) | 44.2 µM | 22.2 µM | 20.2 µM | > 59.5 µM | 36.3 µM | > 100 µM | > 100 µM | > 100 µM
3 | O=C(N/C(=C\c1ccccc1O)c1nc2ccccc2[nH]1)c1ccccc1 | > 100 µM | > 100 µM | > 100 µM | > 100 µM | > 100 µM | > 100 µM | > 100 µM | > 100 µM
4 | NS(=O)(=O)c1ccc(NC(=O)C2C(=O)C(=O)N(c3ccc(S(N)(=O)=O)cc3)C2=O)cc1 (stereo not drawn) | > 100 µM | > 100 µM | > 100 µM | > 100 µM | > 100 µM | > 100 µM | > 100 µM | > 100 µM
5 | CC(C)OC/N=C(/N)NC#N | > 100 µM | > 100 µM | > 100 µM | > 100 µM | > 100 µM | > 100 µM | > 100 µM | > 100 µM
6 | CCCCCCCCCCCCCCCC(=O)OCCOCCOCCOCCOCCOC(=O)CCCCCCCCCCCCCCC | > 100 µM | > 100 µM | > 100 µM | > 100 µM | > 100 µM | > 100 µM | > 100 µM | > 100 µM
